# Data as given in the NIST ThermoML archive (doi:10.1016/j.fluid.2006.02.001).
# Numbers after ± are expanded uncertainties.
# Columns and labels:
# [1] = visual observation
# [2] = Solid-liquid equilibrium temperature; details: Crystal, Closed cell
# [3] = Molar enthalpy of transition or fusion; details: Crystal; DSC
structure (smiles),measurement,setting,value
CCCCCCCCCCCCC [tridecane],Normal melting temperature,[1]; Crystal,-4.14 ± 0.35 °C
same,Solid-liquid equilibrium temperature,[2]; 132350 kPa,293.15 ± 0.9 K
same,Solid-liquid equilibrium temperature,[2]; 196230 kPa,303.15 ± 1.2 K
same,Solid-liquid equilibrium temperature,[2]; 264630 kPa,313.15 ± 1.6 K
same,Solid-liquid equilibrium temperature,[2]; 337550 kPa,323.15 ± 1.9 K
same,Solid-liquid equilibrium temperature,[2]; 415000 kPa,333.15 ± 2.1 K
same,Solid-liquid equilibrium temperature,[2]; 496960 kPa,343.15 ± 2.5 K
CCCCCCCCCCCCCCCCCCCC [eicosane],Normal melting temperature,[1]; Crystal,36.36 ± 0.25 °C
CCCCCCCCCCCCCCCCCCCCO [1-eicosanol],Normal melting temperature,[1]; Crystal 1,64.52 ± 0.5 °C
CCCCCCCCCCCCCCCCO [1-hexadecanol],Normal melting temperature,[1]; Crystal 1,49.1 ± 0.5 °C
"CCC(=O)C(C)=O [2,3-pentanedione]",Normal melting temperature,[1]; Crystal 1,-52.00 ± 0.5 °C
same,Solid-liquid equilibrium temperature,[2]; 697870 kPa,293.15 ± 2.6 K
same,Solid-liquid equilibrium temperature,[2]; 807350 kPa,303.15 ± 2.6 K
same,Solid-liquid equilibrium temperature,[2]; 947230 kPa,313.15 ± 2.5 K
same,Solid-liquid equilibrium temperature,[2]; 1117520 kPa,323.15 ± 2.5 K
same,Solid-liquid equilibrium temperature,[2]; 1318200 kPa,333.15 ± 2.5 K
same,Solid-liquid equilibrium temperature,[2]; 1549280 kPa,343.15 ± 2.8 K
same,Molar enthalpy of transition or fusion,[3],1.87 ± 0.055 kcal/mol
C1CCCCC1 [cyclohexane],Normal melting temperature,[1]; Crystal,7.0 ± 0.25 °C
same,Solid-liquid equilibrium temperature,[2]; 23390 kPa,293.15 ± 0.52 K
same,Solid-liquid equilibrium temperature,[2]; 45610 kPa,303.15 ± 0.89 K
same,Solid-liquid equilibrium temperature,[2]; 67600 kPa,313.15 ± 1.3 K
same,Solid-liquid equilibrium temperature,[2]; 89340 kPa,323.15 ± 1.7 K
same,Solid-liquid equilibrium temperature,[2]; 110840 kPa,333.15 ± 2.1 K
same,Solid-liquid equilibrium temperature,[2]; 132100 kPa,343.15 ± 2.5 K
CCCCCCCCCCCCCCCCCCO [1-octadecanol],Normal melting temperature,[1]; Crystal 1,57.00 ± 0.5 °C
CCCCCCCCCCCCCCCC [hexadecane],Normal melting temperature,[1]; Crystal,18.30 ± 0.25 °C
